Reference: patent US20240366624A1, “METHODS AND COMPOSITIONS FOR TREATING THROMBOTIC DISEASE” (Washington University, priority 2023, published 2024)
“Also recorded” adds a separate entry of the source.

Assays:
platelets [1] = settings: 10 to 33 μM, recent study; cited from earlier work
MAO-B = target: T1, MAO-B (Homo sapiens, UniProt P27338); settings: from studies; cited from earlier work
T1 sequence (P27338 1-520): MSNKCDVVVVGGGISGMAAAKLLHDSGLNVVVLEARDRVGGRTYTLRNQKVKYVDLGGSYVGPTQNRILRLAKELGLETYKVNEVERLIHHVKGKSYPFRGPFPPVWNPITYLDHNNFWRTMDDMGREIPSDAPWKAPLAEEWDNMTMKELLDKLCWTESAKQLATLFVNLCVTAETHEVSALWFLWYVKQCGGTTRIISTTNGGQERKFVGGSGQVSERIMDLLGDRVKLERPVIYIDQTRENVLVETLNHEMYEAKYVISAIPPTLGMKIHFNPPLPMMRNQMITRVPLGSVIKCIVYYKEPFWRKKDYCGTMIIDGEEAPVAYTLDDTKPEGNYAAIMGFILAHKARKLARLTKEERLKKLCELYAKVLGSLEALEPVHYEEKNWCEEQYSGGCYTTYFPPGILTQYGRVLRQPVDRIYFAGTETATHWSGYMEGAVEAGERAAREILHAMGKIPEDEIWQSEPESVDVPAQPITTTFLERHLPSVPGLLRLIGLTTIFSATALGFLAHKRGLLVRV

[2] = thiol-reacting (GSH) activity assay; format: biochemical
Source text: (§1) FIG. 17(A-F) is an exemplary embodiment of identification of novel ERO1α inhibitors by high throughput screening in accordance with the present disclosure. FIG. 17A: A scheme of an ERO1α activity assay. FIG. 17B: Screening of chemical libraries in the ERO1α activity assay. FIG. 17C: The inhibitory effect of selected compounds on ERO1α activity. FIG. 17D: The inhibitory effect of selected compounds on PDI activity. FIG. 17E: The inhibitory effect of selected compounds on H2O2 activity. FIG. 17F: The inhibitory effect of selected compounds on thiol-reacting activity. The data represent the mean±SD (n=3). *P<0.05, **P<0.01, ***P<0.001, and ****P<0.0001 vs. vehicle control, Student's t-test.
(§2) To identify a novel ERO1α inhibitor, 5800 compounds were screened using an ERO1α activity assay (FIG. 17A and FIG. 17B). […] The selected compounds were further tested in assays measuring PDI, antioxidant, and thiol-reacting activities (FIG. 17D through FIG. 17F). […] B12 inhibited P-selectin exposure and αIIbβ3 activation in agonist-activated mouse and human platelets in a concentration-dependent manner (FIG. 18B through FIG. 18E).

platelets [3] = assay: Platelet activation and aggregation, platelet source not stated; format: cell-based; settings: 5-10 microM
Source text: As described herein, small molecule ERO1α inhibitors were identified by performing a high throughput screen using a ChemDiv library. […] Furthermore, intravenous injection of B112-5 reduced the infarct volume in a mouse model of ischemic stroke.

[4] = H2O2 (antioxidant) activity assay; format: biochemical
Source text: as §1, §2

human platelets = assay: Flow cytometry of P-selectin exposure and αIIbβ3 integrin activation, human platelets; format: cell-based; settings: 3 to 10 μM, human platelets, thrombin or CRP
Source text: FIG. 18(A-R) is an exemplary embodiment of novel small-molecule inhibitors recapitulating the defect in Ero1α (endoplasmic reticulum oxidoreductase 1a)-null platelets in accordance with the present disclosure. FIG. 18A: The structure of B12 and its inhibitory effect on ERO1α activity. FIG. 18(B-E): The inhibitory effect of B12 on P-selectin exposure and αIIbβ3 integrin activation in (FIG. 18B and FIG. 18C) mouse and (FIG. 18D and FIG. 18E) human platelets. FIG. 18F: The structure of B12-5 and its inhibitory effect on ERO1α activity. FIG. 18G: A docking model of B12-5-ERO1α (3AHQ) and flavin adenine dinucleotide (FAD)-ERO1α complex. There are pi-sulfur interactions of the phenothiazine head group (B112-5) or a tricyclic ring (FAD) with Met389 and Cys397. Also, there are H bond interactions between the tail/alkyl group and His255, Asn259, and Arg287. […] After incubation with a different concentration of B12-5, the specific interaction between B12-5 and ERO1α was measured by subtracting the nonspecific binding. The KD value was calculated from the Kon and Koff values. […] P values determined by ANOVA and Dunnett test (FIG. 18(B-E), FIG. 18(1-L), and FIG. 18(O-R) [for B12-5]) or Student t test (FIG. 18M, FIG. 18N, and FIG. 18(O-R) [for BAPTA (1,2-bis(o-aminophenoxy)ethane-N,N,N′,N′-tetraacetic acid)]). […]

PDI = PDI (Homo sapiens, UniProt P07237); assay: PDI activity assay; format: biochemical
Source text: as §1, §2

Chain of PDI (P07237 18-508, species assumed): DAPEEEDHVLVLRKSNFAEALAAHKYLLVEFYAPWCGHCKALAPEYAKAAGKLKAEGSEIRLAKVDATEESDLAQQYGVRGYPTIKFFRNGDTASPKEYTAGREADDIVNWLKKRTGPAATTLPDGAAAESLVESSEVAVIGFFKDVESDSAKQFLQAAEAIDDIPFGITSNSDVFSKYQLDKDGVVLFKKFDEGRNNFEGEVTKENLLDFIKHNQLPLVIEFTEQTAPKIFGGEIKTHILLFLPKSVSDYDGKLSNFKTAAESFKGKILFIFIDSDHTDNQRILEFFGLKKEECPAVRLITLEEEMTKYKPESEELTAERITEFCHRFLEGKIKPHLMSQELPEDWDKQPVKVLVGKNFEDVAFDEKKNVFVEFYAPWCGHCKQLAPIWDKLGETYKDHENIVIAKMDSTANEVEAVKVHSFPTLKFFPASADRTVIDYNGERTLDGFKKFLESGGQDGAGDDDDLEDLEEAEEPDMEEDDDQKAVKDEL

Row | SMILES | thrombin-induced platelet aggregation (platelets [1]) | IC50 (MAO-B) [µM] | GSH inhibition at 100 μM (%) ([2]; 100 μM) | effect on thiol-reacting activity ([2]; at or up to 100 μM) | platelet activation and aggregation (platelets [3]) | H2O2 inhibition at 100 μM (%) ([4]; 100 μM) | effect on H2O2 (antioxidant) activity ([4]; at or up to 100 μM) | P-selectin exposure and αIIbβ3 activation (human platelets) | PDI inhibition at 100 μM (%) (PDI; 100 μM) | effect on PDI activity (PDI; at or up to 100 μM)
1 | O=C(O)c1cc(N2N=C(C(F)(F)F)/C(=C/c3ccc(-c4ccccc4)o3)C2=O)ccc1Cl [EN460] | significantly blocks | 30.6 | – | – | – | – | – | – | – | –
2 | O=C(CSc1nc(O)cc(O)n1)N1c2ccccc2Sc2ccccc21 [B12-5] | – | – | 9.7 ± 2 | minimal effect; also recorded: did not affect | significantly inhibited | 6.6 ± 2 | minimal effect; also recorded: did not affect | significantly reduced | 8.2 ± 2 | minimal effect; also recorded: did not affect
